Here are results for 43 compounds from ChEMBL document CHEMBL5729561, “Compounds and uses thereof” (2023).

SMILES strings stand for the structures. pIC50: −log10 of the molar value.

The experiment is described as follows: On day 0 cells were seeded in 30 μL media into each well of 384-well cell culture plates. The seeding density was 8000 cells/well. On day 1, cells were treated with 30 nL DMSO or 30 nL of 3-fold serially DMSO-diluted compounds (10 points in duplicates with 1 μM as final top dose). Subsequently plates were incubated for 6 hours in a standard tissue culture incubator and equilibrated at room temperature for 15 minutes. Nanoluciferase activity was measured by adding 15 μL of freshly prepared Nano-Glo Luciferase Assay Reagent (Promega N1130), shaking the plates for 10 minutes and reading the bioluminescence using an EnVision reader. It counts as cell-based.
As to `COc1cc(-c2cn(C)c(=O)c3cnccc23)cc(OC)c1CN1CCCC(OCc2cn(CCCOc3ccc4c(c3)C(=O)N(C3CCC(=O)NC3=O)C4=O)nn2)C1` (stereo not drawn), the IC50 (in general, the concentration that gives 50% inhibition) is “in the range around 55 nM”. `COc1cc(-c2cn(C)c(=O)c3cnccc23)cc(OC)c1CN(C)CC1CC2(C1)CN(C(=O)CCOCCOc1ccc3c(c1)C(=O)N(C1CCC(=O)NC1=O)C3=O)C2` (stereo not drawn): the IC50 result is “in the range around 550 nM”. The same measure, in the same setting: then `COc1cc(-c2cn(C)c(=O)c3cnccc23)cc(OC)c1CN(C)CCc1cn(CCOc2ccc3c(c2)C(=O)N(C2CCC(=O)NC2=O)C3=O)nn1` (stereo not drawn), with “in the range around 55 nM”; and `COc1cc(-c2cn(C)c(=O)c3cnccc23)cc(OC)c1CN1CCC2(C1)CN(C(=O)CCOCCOc1cccc3c1C(=O)N(C1CCC(=O)NC1=O)C3=O)C2` (stereo not drawn), with “in the range around 55 nM”; and `COc1cc(-c2cn(C)c(=O)c3cnccc23)cc(OC)c1ON1CC2(CC(NC(=O)CCOCCOc3ccc4c(c3)C(=O)N(C3CCC(=O)NC3=O)C4=O)C2)C1` (stereo not drawn), with “in the range around 550 nM”. On the same count and under the same terms, for `COc1cc(-c2cn(C)c(=O)c3cnccc23)cc(OC)c1CN1CCC2(C1)CN(C(=O)CCOCCOc1ccc3c(c1)C(=O)N(C1CCC(=O)NC1=O)C3=O)C2` (stereo not drawn) the value was “in the range around 55 nM”.

In the case of `COc1cc(-c2cn(C)c(=O)c3cnccc23)cc(OC)c1CN(C)CC1CC2(CCN(C(=O)CCOCCOc3ccc4c(c3)C(=O)N(C3CCC(=O)NC3=O)C4=O)CC2)C1` (stereo not drawn), the IC50 result is “in the range around 55 nM”.

Regarding `COc1cc(-c2cn(C)c(=O)c3cnccc23)cc(OC)c1CN1CC2C1CCN2C(=O)CCOCCOc1ccc2c(c1)C(=O)N(C1CCC(=O)NC1=O)C2=O` (stereo not drawn), the negative-log IC50 (pIC50) (as a rule, the negative decadic logarithm of the IC50, by convention in mol/L) is > 8.00. The same measure, in the same setting: for `COc1cc(-c2cn(C)c(=O)c3cnccc23)cc(OC)c1CN1CC(CC(=O)NCCCCCCCCNc2cccc3c2C(=O)N(C2CCC(=O)NC2=O)C3=O)C1` (stereo not drawn) the value was > 8.00; for `COc1cc(-c2cn(C)c(=O)c3cnccc23)cc(OC)c1CN1CC2C1CCN2C(=O)CCOCCOc1cccc2c1C(=O)N(C1CCC(=O)NC1=O)C2=O` (stereo not drawn), > 8.00. Take `COc1cc(-c2cn(C)c(=O)c3cnccc23)cc(OC)c1CN1CCC(OCc2cn(CCCOc3ccc4c(c3)C(=O)N(C3CCC(=O)NC3=O)C4=O)nn2)C1` (stereo not drawn): the IC50 entry was “in the range around 550 nM”.

For the compound `COc1cc(-c2cn(C)c(=O)c3cnccc23)cc(OC)c1CN1CCC2(CC1)CN(C(=O)CCOCCOc1ccc3c(c1)C(=O)N(C1CCC(=O)NC1=O)C3=O)C2` (stereo not drawn), the IC50 entry is “in the range around 55 nM”. In the case of `COc1cc(-c2cn(C)c(=O)c3cnccc23)cc(OC)c1CN1CC(C(=O)NCCCCCCCCNc2cccc3c2C(=O)N(C2CCC(=O)NC2=O)C3=O)C1` (stereo not drawn), the pIC50 was > 8.00.

In the case of `COc1cc(-c2cn(C)c(=O)c3cnccc23)cc(OC)c1CN1CCC(C2CCN(C(=O)CCOCCOc3ccc4c(c3)C(=O)N(C3CCC(=O)NC3=O)C4=O)C2)CC1` (stereo not drawn), the pIC50 was > 8.00. As to `COc1cc(-c2cn(C)c(=O)c3cnccc23)cc(OC)c1CN1CC(C(=O)NCCS(=O)(=O)CCNc2cccc3c2C(=O)N(C2CCC(=O)NC2=O)C3=O)C1` (stereo not drawn), the IC50 entry is “in the range around 55 nM”.

In the case of `COc1cc(-c2cn(C)c(=O)c3cnccc23)cc(OC)c1CN1CC[C@H]1C(=O)NCCCCCCCCNc1cccc2c1C(=O)N(C1CCC(=O)NC1=O)C2=O` (stereo partly drawn), the pIC50 is > 8.00.

Take `COc1cc(-c2cn(C)c(=O)c3cnccc23)cc(OC)c1CN1CCC(OCc2cn(-c3ccc4c(c3)C(=O)N(C3CCC(=O)NC3=O)C4=O)nn2)CC1` (stereo not drawn): the IC50 result was “in the range around 55 nM”. Regarding `COc1cc(-c2cn(C)c(=O)c3cnccc23)cc(OC)c1CN1CCC2CCN(C(=O)CCOCCOc3cccc4c3C(=O)N(C3CCC(=O)NC3=O)C4=O)CC21` (stereo not drawn), the half-maximal inhibitory concentration (IC50) result is “in the range around 55 nM”. Consider `COc1cc(-c2cn(C)c(=O)c3cnccc23)cc(OC)c1CN1CCN(C(=O)C2CC2CNC(=O)COc2ccc3c(c2)C(=O)N(C2CCC(=O)NC2=O)C3=O)CC1` (stereo not drawn), for which the IC50 entry is “in the range around 550 nM”. On the same count and under the same terms, for `COc1cc(-c2cn(C)c(=O)c3cnccc23)cc(OC)c1CN1CCC(OCc2cn(CCCCOc3ccc4c(c3)C(=O)N(C3CCC(=O)NC3=O)C4=O)nn2)CC1` (stereo not drawn) the value was “in the range around 55 nM”. Consider `COc1cc(-c2cn(C)c(=O)c3cnccc23)cc(OC)c1CN(C)C12CC(C(=O)NCCOCCOCCNc3cccc4c3C(=O)N(C3CCC(=O)NC3=O)C4=O)(C1)C2` (stereo not drawn), for which the pIC50 was > 8.00. As for `COc1cc(-c2cn(C)c(=O)c3cnccc23)cc(OC)c1CN(C)C1CC2CC1CN2C(=O)CCOCCOc1cccc2c1C(=O)N(C1CCC(=O)NC1=O)C2=O` (stereo not drawn), the IC50 result is “in the range around 55 nM”. Same read-out and setting: then `COc1cc(-c2cn(C)c(=O)c3cnccc23)cc(OC)c1CN1CCC(OC2CCN(C(=O)CCOCCOc3cccc4c3C(=O)N(C3CCC(=O)NC3=O)C4=O)C2)CC1` (stereo not drawn), with “in the range around 55 nM”; and `COc1cc(-c2cn(C)c(=O)c3cnccc23)cc(OC)c1CN1CCC12CCN(C(=O)CCOCCOc1ccc3c(c1)C(=O)N(C1CCC(=O)NC1=O)C3=O)C2` (stereo not drawn), with “in the range around 550 nM”.

As to `COc1cc(-c2cn(C)c(=O)c3cnccc23)cc(OC)c1CN1CCC2(CC1)CN(C(=O)CCCCOc1cccc3c1C(=O)N(C1CCC(=O)NC1=O)C3=O)CCO2` (stereo not drawn), the pIC50 was > 8.00. Regarding `COc1cc(-c2cn(C)c(=O)c3cnccc23)cc(OC)c1CN1CC(C(=O)N(C)CCCCCNc2cccc3c2C(=O)N(C2CCC(=O)NC2=O)C3=O)C1` (stereo not drawn), the negative-log IC50 (pIC50) is > 8.00. Still for that read-out and setting: then `COc1cc(-c2cn(C)c(=O)c3cnccc23)cc(OC)c1CN1CC(C(=O)N2CCC(C3CCN(C(=O)COc4cccc5c4C(=O)N(C4CCC(=O)NC4=O)C5=O)CC3)CC2)C1` (stereo not drawn), with > 8.00. The same measure, in the same setting: then `COc1cc(-c2cn(C)c(=O)c3cnccc23)cc(OC)c1CN(C)C12CC(NC(=O)CCCCCOc3cccc4c3C(=O)N(C3CCC(=O)NC3=O)C4=O)(C1)C2` (stereo not drawn), with > 8.00. As for `COc1cc(-c2cn(C)c(=O)c3cnccc23)cc(OC)c1CN1CCC2(C[C@H]2NC(=O)CCOCCOc2ccc3c(c2)C(=O)N(C2CCC(=O)NC2=O)C3=O)C1` (stereo partly drawn), the IC50 entry was “in the range around 550 nM”. `COc1cc(-c2cn(C)c(=O)c3cnccc23)cc(OC)c1CN1CCC(COC2CCN(C(=O)CCOCCOc3ccc4c(c3)C(=O)N(C3CCC(=O)NC3=O)C4=O)C2)CC1` (stereo not drawn): the pIC50 is > 8.00. On the same count and under the same terms, then `COc1cc(-c2cn(C)c(=O)c3cnccc23)cc(OC)c1CN1CC(S(=O)(=O)NCCCCCCCCNc2cccc3c2C(=O)N(C2CCC(=O)NC2=O)C3=O)C1` (stereo not drawn), with > 8.00; and `COc1cc(-c2cn(C)c(=O)c3cnccc23)cc(OC)c1CN1CC(S(=O)(=O)NCCOCCOCCNc2cccc3c2C(=O)N(C2CCC(=O)NC2=O)C3=O)C1` (stereo not drawn), with > 8.00. Take `COc1cc(-c2cn(C)c(=O)c3cnccc23)cc(OC)c1CN1CCC(OCc2cn(CCCCOc3ccc4c(c3)C(=O)N(C3CCC(=O)NC3=O)C4=O)nn2)C1` (stereo not drawn): the IC50 entry was “in the range around 55 nM”. Turning to `COc1cc(-c2cn(C)c(=O)c3cnccc23)cc(OC)c1CN(C)C1CC2CC1CN2C(=O)CCOCCOc1ccc2c(c1)C(=O)N(C1CCC(=O)NC1=O)C2=O` (stereo not drawn), the negative-log IC50 (pIC50) was > 8.00. For the compound `COc1cc(-c2cn(C)c(=O)c3cnccc23)cc(OC)c1CN(C)C1CCC2CN(C(=O)CCOCCOc3cccc4c3C(=O)N(C3CCC(=O)NC3=O)C4=O)CC21` (stereo not drawn), the IC50 result is “in the range around 55 nM”. As for `COc1cc(-c2cn(C)c(=O)c3cnccc23)cc(OC)c1CN1CCC2(CC1)CC(NC(=O)CCOCCOc1ccc3c(c1)C(=O)N(C1CCC(=O)NC1=O)C3=O)C2` (stereo not drawn), the IC50 result was “in the range around 55 nM”. Same read-out and setting: then `COc1cc(-c2cn(C)c(=O)c3cnccc23)cc(OC)c1CN(C)CC1CC2(CCN(C(=O)CCOCCOc3cccc4c3C(=O)N(C3CCC(=O)NC3=O)C4=O)CC2)CO1` (stereo not drawn), with “in the range around 55 nM”. Regarding `COc1cc(-c2cn(C)c(=O)c3cnccc23)cc(OC)c1CN(C)C(=O)CCCCN1CCOC2(CCN(c3ccc4c(c3)C(=O)N(C3CCC(=O)NC3=O)C4=O)CC2)C1` (stereo not drawn), the negative logarithm of the IC50 (pIC50) was > 8.00. `COc1cc(-c2cn(C)c(=O)c3cnccc23)cc(OC)c1CN1CC(OCc2cn(CCOc3ccc4c(c3)C(=O)N(C3CCC(=O)NC3=O)C4=O)nn2)C1` (stereo not drawn): the IC50 entry is “in the range around 55 nM”. Same read-out and setting: then `COc1cc(-c2cn(C)c(=O)c3cnccc23)cc(OC)c1CN1CCC(OCc2cn(CCOCc3ccc4c(c3)C(=O)N(C3CCC(=O)NC3=O)C4=O)nn2)CC1` (stereo not drawn), with “in the range around 55 nM”; and `COc1cc(-c2cn(C)c(=O)c3cnccc23)cc(OC)c1CN1CC(OCc2cn(CCCCCOc3ccc4c(c3)C(=O)N(C3CCC(=O)NC3=O)C4=O)nn2)C1` (stereo not drawn), with “in the range around 55 nM”. Take `COc1cc(-c2cn(C)c(=O)c3cnccc23)cc(OC)c1CN1CCC2(CC1)CN(C(=O)CCCOc1cccc3c1C(=O)N(C1CCC(=O)NC1=O)C3=O)CCO2` (stereo not drawn): the pIC50 is > 8.00. With `COc1cc(-c2cn(C)c(=O)c3cnccc23)cc(OC)c1CN1CCC12CN(C(=O)CCOCCOc1ccc3c(c1)C(=O)N(C1CCC(=O)NC1=O)C3=O)C2` (stereo not drawn), the IC50 entry is “in the range around 550 nM”.
